{
  "source": "ChEMBL document CHEMBL3414527",
  "about": "“Engineering potent and selective analogues of GpTx-1, a tarantula venom peptide antagonist of the Na(V)1.7 sodium channel” (J Med Chem, 2015)",
  "key": {"[1]": {"target": "Sodium channel protein type 9 subunit alpha (Homo sapiens, UniProt Q15858)", "sequence (Q15858 whole entry)": "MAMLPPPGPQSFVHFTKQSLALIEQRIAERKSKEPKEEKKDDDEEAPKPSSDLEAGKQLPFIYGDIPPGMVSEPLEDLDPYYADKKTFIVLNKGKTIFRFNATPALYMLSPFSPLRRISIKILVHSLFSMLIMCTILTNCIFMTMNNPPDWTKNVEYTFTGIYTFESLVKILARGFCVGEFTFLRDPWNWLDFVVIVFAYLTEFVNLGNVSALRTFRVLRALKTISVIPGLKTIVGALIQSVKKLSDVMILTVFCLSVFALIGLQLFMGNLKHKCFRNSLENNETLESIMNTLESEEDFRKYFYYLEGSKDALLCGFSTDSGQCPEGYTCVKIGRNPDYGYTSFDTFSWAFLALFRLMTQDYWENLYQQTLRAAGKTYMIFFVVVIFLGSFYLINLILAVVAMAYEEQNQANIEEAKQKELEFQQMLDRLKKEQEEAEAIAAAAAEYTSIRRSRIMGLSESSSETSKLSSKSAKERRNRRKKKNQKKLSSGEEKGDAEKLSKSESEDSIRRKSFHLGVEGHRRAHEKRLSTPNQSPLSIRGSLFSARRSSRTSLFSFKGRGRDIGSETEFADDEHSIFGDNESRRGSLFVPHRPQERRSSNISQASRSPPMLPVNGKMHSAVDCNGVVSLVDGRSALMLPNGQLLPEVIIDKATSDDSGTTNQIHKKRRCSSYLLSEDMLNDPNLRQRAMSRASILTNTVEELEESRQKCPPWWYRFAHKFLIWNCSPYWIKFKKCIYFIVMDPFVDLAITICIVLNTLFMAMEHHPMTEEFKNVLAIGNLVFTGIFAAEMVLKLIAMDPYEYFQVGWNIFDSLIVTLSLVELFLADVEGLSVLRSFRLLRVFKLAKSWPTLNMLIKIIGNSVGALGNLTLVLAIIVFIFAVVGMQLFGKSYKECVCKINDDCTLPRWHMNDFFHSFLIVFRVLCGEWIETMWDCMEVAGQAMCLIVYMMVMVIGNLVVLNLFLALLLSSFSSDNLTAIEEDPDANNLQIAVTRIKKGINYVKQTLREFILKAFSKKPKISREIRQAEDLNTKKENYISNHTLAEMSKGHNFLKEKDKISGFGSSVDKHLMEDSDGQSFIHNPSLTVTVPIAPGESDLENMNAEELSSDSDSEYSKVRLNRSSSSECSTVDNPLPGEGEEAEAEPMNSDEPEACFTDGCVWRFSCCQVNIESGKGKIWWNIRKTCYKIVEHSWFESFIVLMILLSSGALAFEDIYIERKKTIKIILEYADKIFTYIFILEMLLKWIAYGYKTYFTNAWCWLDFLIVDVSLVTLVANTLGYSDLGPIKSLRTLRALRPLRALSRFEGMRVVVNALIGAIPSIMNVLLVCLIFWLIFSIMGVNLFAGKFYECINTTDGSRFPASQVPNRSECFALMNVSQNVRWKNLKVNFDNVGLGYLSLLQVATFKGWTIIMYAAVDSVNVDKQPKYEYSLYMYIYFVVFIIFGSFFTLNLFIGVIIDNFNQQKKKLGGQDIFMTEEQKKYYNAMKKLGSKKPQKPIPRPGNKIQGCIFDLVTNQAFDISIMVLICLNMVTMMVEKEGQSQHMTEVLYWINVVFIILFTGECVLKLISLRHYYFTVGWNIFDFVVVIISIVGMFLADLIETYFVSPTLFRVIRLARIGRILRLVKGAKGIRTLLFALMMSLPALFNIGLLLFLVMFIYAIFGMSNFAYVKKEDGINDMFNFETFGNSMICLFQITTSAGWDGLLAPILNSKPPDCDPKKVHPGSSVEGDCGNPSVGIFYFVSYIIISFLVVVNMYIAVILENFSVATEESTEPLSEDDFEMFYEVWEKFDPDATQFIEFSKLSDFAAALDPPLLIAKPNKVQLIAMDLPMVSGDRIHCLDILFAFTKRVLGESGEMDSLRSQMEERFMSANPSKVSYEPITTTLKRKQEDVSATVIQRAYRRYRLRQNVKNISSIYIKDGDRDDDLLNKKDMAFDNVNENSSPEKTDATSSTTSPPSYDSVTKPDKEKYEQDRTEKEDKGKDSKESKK", "test": "Inhibition of human NaV1.7 at -140 mV holding potential by whole-cell patch clamp assay"}, "[2]": {"target": "Sodium channel protein type 5 subunit alpha (Homo sapiens, UniProt Q14524)", "sequence (Q14524 whole entry)": "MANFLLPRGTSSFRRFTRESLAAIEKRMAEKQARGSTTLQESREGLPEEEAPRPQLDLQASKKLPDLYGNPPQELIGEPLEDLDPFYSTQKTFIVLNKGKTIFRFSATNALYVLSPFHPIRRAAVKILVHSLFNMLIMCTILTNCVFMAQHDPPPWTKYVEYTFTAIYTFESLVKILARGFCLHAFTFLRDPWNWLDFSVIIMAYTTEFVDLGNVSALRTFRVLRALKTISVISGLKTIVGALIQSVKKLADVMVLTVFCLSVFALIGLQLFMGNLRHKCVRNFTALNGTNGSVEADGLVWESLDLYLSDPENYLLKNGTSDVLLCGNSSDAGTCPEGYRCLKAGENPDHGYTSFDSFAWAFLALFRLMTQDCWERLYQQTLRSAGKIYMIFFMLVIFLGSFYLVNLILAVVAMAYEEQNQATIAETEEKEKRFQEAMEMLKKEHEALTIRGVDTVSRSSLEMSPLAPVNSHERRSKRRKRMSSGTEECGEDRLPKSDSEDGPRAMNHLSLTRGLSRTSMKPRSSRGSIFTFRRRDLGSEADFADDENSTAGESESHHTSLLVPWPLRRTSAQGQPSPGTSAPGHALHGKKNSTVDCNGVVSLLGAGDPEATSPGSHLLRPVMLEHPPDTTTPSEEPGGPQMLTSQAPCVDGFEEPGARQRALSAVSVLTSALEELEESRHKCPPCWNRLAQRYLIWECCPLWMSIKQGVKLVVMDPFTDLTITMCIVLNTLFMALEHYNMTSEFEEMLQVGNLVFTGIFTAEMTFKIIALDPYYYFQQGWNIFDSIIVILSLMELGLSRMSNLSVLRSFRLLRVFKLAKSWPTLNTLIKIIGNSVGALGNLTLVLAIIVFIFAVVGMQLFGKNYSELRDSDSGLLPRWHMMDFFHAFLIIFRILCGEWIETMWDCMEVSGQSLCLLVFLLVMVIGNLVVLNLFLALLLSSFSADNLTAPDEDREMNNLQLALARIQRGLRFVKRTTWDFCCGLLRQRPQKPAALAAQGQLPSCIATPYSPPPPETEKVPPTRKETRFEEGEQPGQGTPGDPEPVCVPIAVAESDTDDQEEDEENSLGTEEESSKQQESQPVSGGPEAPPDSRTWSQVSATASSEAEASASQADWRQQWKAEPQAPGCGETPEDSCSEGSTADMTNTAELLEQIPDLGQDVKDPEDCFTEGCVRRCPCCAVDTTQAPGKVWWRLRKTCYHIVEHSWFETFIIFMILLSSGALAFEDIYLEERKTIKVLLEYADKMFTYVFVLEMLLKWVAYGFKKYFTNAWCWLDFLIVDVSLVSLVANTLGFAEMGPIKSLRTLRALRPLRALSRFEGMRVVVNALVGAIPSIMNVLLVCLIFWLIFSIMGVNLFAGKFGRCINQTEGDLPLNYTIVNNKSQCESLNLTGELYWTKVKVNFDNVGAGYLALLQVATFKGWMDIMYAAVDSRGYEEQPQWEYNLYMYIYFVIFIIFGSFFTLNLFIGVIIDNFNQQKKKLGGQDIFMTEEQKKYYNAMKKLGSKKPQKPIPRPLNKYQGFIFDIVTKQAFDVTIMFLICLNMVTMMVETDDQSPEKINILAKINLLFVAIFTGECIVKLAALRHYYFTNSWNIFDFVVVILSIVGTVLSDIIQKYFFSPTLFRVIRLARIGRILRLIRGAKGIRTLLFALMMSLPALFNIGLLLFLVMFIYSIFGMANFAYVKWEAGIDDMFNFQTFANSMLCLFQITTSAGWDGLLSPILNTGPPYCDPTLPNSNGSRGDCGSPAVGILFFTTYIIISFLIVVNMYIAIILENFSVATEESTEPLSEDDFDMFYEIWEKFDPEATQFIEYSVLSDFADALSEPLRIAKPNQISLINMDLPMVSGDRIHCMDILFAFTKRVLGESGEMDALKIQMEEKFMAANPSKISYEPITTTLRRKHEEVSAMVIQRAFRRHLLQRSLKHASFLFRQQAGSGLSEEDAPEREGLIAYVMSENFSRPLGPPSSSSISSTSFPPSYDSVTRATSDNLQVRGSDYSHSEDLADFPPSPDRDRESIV", "test": "Inhibition of human NaV1.5 at -140 mV holding potential by whole-cell patch clamp assay"}},
  "note": "Bridge positions count the residues as written; N and C are the ends. Peptide text beside a SMILES is read from it.",
  "data": [
    {"smiles": "CC[C@H](C)[C@@H]1NC(=O)[C@@H]2CSSC[C@@H]3NC(=O)[C@H](C(C)C)NC(=O)[C@H](CC(C)C)NC(=O)[C@H](CC(N)=O)NC(=O)[C@H](C)NC(=O)[C@H](CCCNC(=N)N)NC(=O)[C@H](CSSC[C@H](NC(=O)[C@@H](N)CC(=O)O)C(=O)N[C@@H](CC(C)C)C(=O)NCC(=O)N[C@@H](Cc4ccccc4)C(=O)N[C@@H](CCSC)C(=O)N[C@@H](CCCNC(=N)N)C(=O)N[C@@H](CCCCN)C(=O)N2)NC(=O)[C@H](CSSC[C@@H](C(=O)N[C@@H](CCCCN)C(=O)N[C@@H](Cc2ccc(O)cc2)C(=O)N[C@H](C(=O)N[C@@H](Cc2ccccc2)C(N)=O)C(C)C)NC(=O)[C@H](Cc2c[nH]c4ccccc24)NC(=O)[C@H](CCCCN)NC(=O)[C@H](Cc2cnc[nH]2)NC(=O)[C@H]([C@@H](C)O)NC(=O)[C@H](CCCNC(=N)N)NC(=O)[C@H](CO)NC3=O)NC(=O)[C@H](CCCCN)NC(=O)[C@H](CC(=O)O)NC(=O)[C@H](CC(N)=O)NC(=O)[C@H](CC(=O)O)NC(=O)[C@@H]2CCCN2C1=O", "note": "(H-DCLGFMRKCIPDNDKCCRANLVCSRTHKWCKYVF-NH2; disulfide 2-17, 9-23, 16-30)", "values": [
      {"measurement": "IC50", "setting": "[1]", "result": 90, "unit": "nM"},
      {"measurement": "IC50", "setting": "[2]", "result": "> 20000", "unit": "nM"}
    ]},
    {"smiles": "CC[C@H](C)[C@@H]1NC(=O)[C@@H]2CSSC[C@@H]3NC(=O)[C@H](C(C)C)NC(=O)[C@H](CC(C)C)NC(=O)[C@H](CC(N)=O)NC(=O)[C@@H]4CCCN4C(=O)[C@H](C)NC(=O)[C@H](CSSC[C@H](NC(=O)[C@@H](N)CC(=O)O)C(=O)N[C@@H](CC(C)C)C(=O)NCC(=O)N[C@@H](Cc4ccccc4)C(=O)N[C@@H](CCSC)C(=O)N[C@@H](CCCNC(=N)N)C(=O)N[C@@H](CCCCN)C(=O)N2)NC(=O)[C@H](CSSC[C@@H](C(=O)N[C@@H](CCCCN)C(=O)N[C@@H](Cc2ccc(O)cc2)C(=O)N[C@H](C(=O)N[C@@H](Cc2ccccc2)C(N)=O)C(C)C)NC(=O)[C@H](Cc2c[nH]c4ccccc24)NC(=O)[C@H](CCCCN)NC(=O)[C@H](Cc2cnc[nH]2)NC(=O)[C@H]([C@@H](C)O)NC(=O)[C@H](CCCNC(=N)N)NC(=O)[C@H](CO)NC3=O)NC(=O)[C@H](CCCCN)NC(=O)[C@H](CC(=O)O)NC(=O)[C@H](CC(N)=O)NC(=O)[C@H](CC(=O)O)NC(=O)[C@@H]2CCCN2C1=O", "note": "(H-DCLGFMRKCIPDNDKCCAPNLVCSRTHKWCKYVF-NH2; disulfide 2-17, 9-23, 16-30)", "values": [
      {"measurement": "IC50", "setting": "[1]", "result": 130, "unit": "nM"},
      {"measurement": "IC50", "setting": "[2]", "result": "> 20000", "unit": "nM"}
    ]},
    {"smiles": "CC[C@H](C)[C@@H]1NC(=O)[C@@H]2CSSC[C@@H]3NC(=O)[C@H](C(C)C)NC(=O)[C@H](CC(C)C)NC(=O)[C@H](CC(N)=O)NC(=O)[C@@H]4CCCN4C(=O)[C@H](CCCNC(=N)N)NC(=O)[C@H](CSSC[C@H](NC(=O)[C@@H](N)CC(=O)O)C(=O)N[C@@H](CC(C)C)C(=O)NCC(=O)N[C@@H](Cc4ccccc4)C(=O)N[C@@H](CCSC)C(=O)N[C@@H](CCCNC(=N)N)C(=O)N[C@@H](CCCCN)C(=O)N2)NC(=O)[C@H](CSSC[C@@H](C(=O)N[C@@H](C)C(=O)N[C@@H](Cc2ccc(O)cc2)C(=O)N[C@H](C(=O)N[C@@H](Cc2ccccc2)C(N)=O)C(C)C)NC(=O)[C@H](Cc2c[nH]c4ccccc24)NC(=O)[C@H](CCCCN)NC(=O)[C@H](Cc2cnc[nH]2)NC(=O)[C@H]([C@@H](C)O)NC(=O)[C@H](CCCNC(=N)N)NC(=O)[C@H](CO)NC3=O)NC(=O)[C@H](CCCCN)NC(=O)[C@H](CC(=O)O)NC(=O)[C@H](CC(N)=O)NC(=O)[C@H](CC(=O)O)NC(=O)[C@@H]2CCCN2C1=O", "note": "(H-DCLGFMRKCIPDNDKCCRPNLVCSRTHKWCAYVF-NH2; disulfide 2-17, 9-23, 16-30)", "values": [
      {"measurement": "IC50", "setting": "[1]", "result": "> 5000", "unit": "nM"},
      {"measurement": "IC50", "setting": "[2]", "result": "> 5000", "unit": "nM"}
    ]}
  ]
}
